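How tested: cells in 96-well plates exposed to compound for 48 hours at five concentrations. Abbreviation: GI50, concentration required for 50% inhibition of growth.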 Activity calls are given as the source filed them. Rule as the data show it: active = GI50 up to about 1.1 µM and inactive = higher.
What was measured:
Test in all cases: DTP human tumour cell line panel, 48 h
786-0 = tested on: 786-0
BT-549 = tested on: BT-549
COLO 205 = tested on: COLO 205
HOP-62 = tested on: HOP-62
KM12 = tested on: KM12
LOX IMVI = tested on: LOX IMVI
MCF7 = tested on: MCF7
Malme-3M = tested on: Malme-3M
NCI/ADR-RES = tested on: NCI/ADR-RES
OVCAR-4 = tested on: OVCAR-4
PC-3 = tested on: PC-3
RXF 393 = tested on: RXF 393
SK-OV-3 = tested on: SK-OV-3
SNB-19 = tested on: SNB-19
SNB-75 = tested on: SNB-75
SW-620 = tested on: SW-620
U-251 = tested on: U-251
UACC-257 = tested on: UACC-257
HOP-92 = tested on: HOP-92
MDA-N = tested on: MDA-N

Measured: GI50

CN(C)CCn1c(=O)c2ccc(NCCCN(C)CCCNc3ccc4c(=O)n(CCN(C)C)c(=O)n5c6ccccc6c(=O)c3c45)c3c(=O)c4ccccc4n(c1=O)c23
active: 786-0 < 0.01 µM | BT-549 0.117 µM | COLO 205 < 0.01 µM | HOP-62 < 0.0161 µM | KM12 < 0.01 µM | LOX IMVI < 0.01 µM | MCF7 < 0.01 µM | Malme-3M 0.361 µM | NCI/ADR-RES 0.0339 µM | OVCAR-4 < 0.01 µM | PC-3 < 0.01 µM | RXF 393 < 0.0149 µM | SK-OV-3 0.101 µM | SNB-19 < 0.01 µM | SNB-75 < 0.0117 µM | SW-620 < 0.01 µM | U-251 < 0.01 µM | UACC-257 0.208 µM

CCOC(=O)Cc1csc(NC(NC(=O)OCC)(C(=O)OCC)C(F)(F)F)n1 (centres undefined)
inactive: 786-0 > 100 µM | COLO 205 > 100 µM | HOP-62 > 100 µM | HOP-92 56.6 µM | KM12 > 100 µM | LOX IMVI > 100 µM | MCF7 > 100 µM | MDA-N > 100 µM | Malme-3M > 100 µM | NCI/ADR-RES > 100 µM | OVCAR-4 > 100 µM | PC-3 > 100 µM | RXF 393 > 100 µM | SK-OV-3 > 100 µM | SNB-19 > 100 µM | SNB-75 > 100 µM | SW-620 > 100 µM | U-251 > 100 µM | UACC-257 > 100 µM

Cc1nc(Nc2ccc(F)cc2)c2sc(=S)n(-c3ccc(F)cc3)c2n1
inactive: 786-0 10 µM | BT-549 13.3 µM | COLO 205 14.5 µM | HOP-62 11.8 µM | KM12 15 µM | LOX IMVI 4.99 µM | MCF7 5.5 µM | Malme-3M 14.6 µM | NCI/ADR-RES 17.1 µM | OVCAR-4 15.5 µM | PC-3 20.1 µM | RXF 393 12.6 µM | SK-OV-3 19.4 µM | SNB-19 14.7 µM | SNB-75 16.1 µM | SW-620 9.77 µM | U-251 14.7 µM | UACC-257 13.4 µM

CC(NC1=NCCO1)c1ccco1 (centres undefined)
inactive: 786-0 > 100 µM | COLO 205 79.8 µM | HOP-62 > 100 µM | HOP-92 > 100 µM | KM12 20.3 µM | LOX IMVI > 100 µM | MCF7 > 100 µM | MDA-N 95.9 µM | Malme-3M > 100 µM | NCI/ADR-RES > 100 µM | OVCAR-4 > 100 µM | PC-3 > 100 µM | RXF 393 > 100 µM | SK-OV-3 > 100 µM | SNB-19 > 100 µM | SW-620 > 100 µM | U-251 > 100 µM | UACC-257 > 100 µM

CCOC(=O)Cc1[nH]c(C(=O)c2ccccc2)cc1C(=O)c1ccccc1
inactive: 786-0 > 10 µM | BT-549 20.6 µM | COLO 205 21.7 µM | HOP-62 23.8 µM | KM12 48.9 µM | LOX IMVI 22.2 µM | MCF7 > 10 µM | Malme-3M 33.6 µM | NCI/ADR-RES > 100 µM | OVCAR-4 18.3 µM | PC-3 > 10 µM | RXF 393 24.3 µM | SK-OV-3 > 100 µM | SNB-19 > 100 µM | SNB-75 59.8 µM | SW-620 > 100 µM | U-251 > 100 µM | UACC-257 > 10 µM

O=C(/C(=C/c1ccccc1)c1ccccc1)N1c2ccccc2CC1c1c[nH]c2ccccc12 (centres undefined)
inactive: 786-0 > 100 µM | COLO 205 6.27 µM | HOP-62 > 100 µM | HOP-92 81.1 µM | KM12 10.2 µM | LOX IMVI 21.6 µM | Malme-3M 28.5 µM | OVCAR-4 37.8 µM | RXF 393 6.07 µM | SK-OV-3 > 100 µM | SNB-19 23.7 µM | SNB-75 > 100 µM | SW-620 59.2 µM | U-251 9.53 µM | UACC-257 54.5 µM

C/C(CC(O)(C(F)(F)F)C(F)(F)F)=N\NC(N)=O
inactive: 786-0 > 10 µM | COLO 205 > 10 µM | HOP-62 > 10 µM | HOP-92 > 10 µM | KM12 > 10 µM | LOX IMVI > 10 µM | MCF7 > 10 µM | MDA-N > 10 µM | Malme-3M > 10 µM | NCI/ADR-RES > 10 µM | OVCAR-4 > 10 µM | PC-3 > 10 µM | RXF 393 > 10 µM | SK-OV-3 > 10 µM | SNB-19 > 10 µM | SNB-75 > 10 µM | SW-620 > 10 µM | U-251 > 10 µM | UACC-257 > 10 µM

N#CC1(C#N)C2C=CC(C3CC=CC32)C1(C#N)C#N (centres undefined)
inactive: 786-0 1.79 µM | COLO 205 2.07 µM | HOP-62 12.9 µM | HOP-92 4.27 µM | KM12 > 10 µM | LOX IMVI 8.59 µM | MCF7 6.52 µM | Malme-3M 2.79 µM | NCI/ADR-RES 12.9 µM | OVCAR-4 4.01 µM | PC-3 8.59 µM | RXF 393 5.16 µM | SK-OV-3 45 µM | SNB-19 > 50 µM | SNB-75 > 10 µM | SW-620 2.13 µM | U-251 10.4 µM | UACC-257 12.7 µM

Cc1ccc(NC(=O)C(=O)C2NC(=S)NC2=O)c([N+](=O)[O-])c1 (centres undefined)
inactive: 786-0 > 100 µM | COLO 205 > 100 µM | HOP-62 > 100 µM | HOP-92 45.5 µM | KM12 > 100 µM | LOX IMVI > 100 µM | Malme-3M > 100 µM | OVCAR-4 > 100 µM | RXF 393 > 100 µM | SK-OV-3 > 100 µM | SNB-19 > 100 µM | SNB-75 > 100 µM | SW-620 > 100 µM | U-251 > 100 µM | UACC-257 > 100 µM

CC1=NN(c2nc(N)nc(/C(C#N)=C\C3COc4ccccc4C3=O)n2)C(C)(C)C1 (centres undefined)
inactive: 786-0 19.2 µM | HOP-62 32.7 µM | HOP-92 36.5 µM | KM12 36.7 µM | LOX IMVI 27.2 µM | MCF7 32.4 µM | MDA-N 18.9 µM | NCI/ADR-RES 15.9 µM | OVCAR-4 34 µM | PC-3 24.4 µM | RXF 393 16.4 µM | SK-OV-3 25.8 µM | SW-620 30.7 µM | U-251 24.5 µM | UACC-257 51.4 µM

CC1(C)OCN(c2ccc(N3CCOCC3)cc2)Cn2c1nc1ccccc12
inactive: 786-0 > 100 µM | COLO 205 > 100 µM | HOP-62 > 100 µM | HOP-92 > 100 µM | KM12 > 100 µM | LOX IMVI 31.8 µM | Malme-3M > 100 µM | OVCAR-4 29.6 µM | RXF 393 39.1 µM | SK-OV-3 > 100 µM | SNB-19 > 100 µM | SNB-75 > 100 µM | SW-620 34.1 µM | U-251 > 100 µM | UACC-257 46.1 µM

CCCCC1CCCCCCc2[nH]c(/C=C3\N=C(c4ccc[nH]4)C=C3OC)cc21 (centres undefined)
active: 786-0 < 0.01 µM | COLO 205 < 0.011 µM | HOP-62 0.0181 µM | HOP-92 < 0.0119 µM | KM12 < 0.01 µM | LOX IMVI < 0.01 µM | MCF7 < 0.0139 µM | MDA-N < 0.0139 µM | Malme-3M 0.0241 µM | NCI/ADR-RES < 0.0169 µM | OVCAR-4 < 0.0127 µM | PC-3 < 0.0119 µM | RXF 393 0.078 µM | SK-OV-3 0.326 µM | SNB-19 0.151 µM | SNB-75 < 0.0306 µM | SW-620 < 0.01 µM | U-251 < 0.0122 µM | UACC-257 0.13 µM

SC1=C2CCCCCC2=NC2(CCCCCC2)S1
inactive: 786-0 33.1 µM | COLO 205 17.7 µM | HOP-62 31.7 µM | HOP-92 21.1 µM | KM12 18.4 µM | LOX IMVI 29.4 µM | MCF7 19 µM | MDA-N 33.4 µM | Malme-3M 22 µM | NCI/ADR-RES 26.5 µM | OVCAR-4 16.9 µM | PC-3 27.5 µM | RXF 393 32.6 µM | SK-OV-3 62.8 µM | SNB-19 25.8 µM | SNB-75 19.2 µM | SW-620 32.3 µM | U-251 32 µM | UACC-257 11 µM

C=C1C(=O)C23C(O)C1CC[C@H]2C12CCCC(C)(COC(C)=O)[C@H]1[C@H](O)[C@]3(O)OC2 (some centres undefined)
active: 786-0 0.966 µM | RXF 393 0.407 µM | SW-620 0.519 µM
inactive: BT-549 1.48 µM | COLO 205 1.46 µM | HOP-62 3.09 µM | HOP-92 1.39 µM | KM12 2.37 µM | LOX IMVI 1.52 µM | MCF7 1.78 µM | Malme-3M 1.42 µM | OVCAR-4 2.15 µM | PC-3 1.88 µM | SK-OV-3 4.63 µM | SNB-19 3.44 µM | SNB-75 1.53 µM | U-251 2.21 µM | UACC-257 1.14 µM

COC(=O)c1cnc(Cl)cn1
inactive: 786-0 > 100 µM | BT-549 37 µM | COLO 205 > 100 µM | HOP-62 > 100 µM | HOP-92 28.4 µM | KM12 24.9 µM | LOX IMVI 33.4 µM | MCF7 38.4 µM | Malme-3M 50.2 µM | NCI/ADR-RES 45.6 µM | OVCAR-4 20.2 µM | PC-3 13.6 µM | SK-OV-3 > 100 µM | SNB-19 > 100 µM | SNB-75 90.4 µM | SW-620 63.7 µM | U-251 34.9 µM | UACC-257 57.9 µM

NCCCCN(CCCN)C(=O)c1ccccc1
inactive: 786-0 > 100 µM | BT-549 > 100 µM | COLO 205 > 100 µM | HOP-62 > 100 µM | HOP-92 > 100 µM | KM12 > 100 µM | MCF7 > 100 µM | NCI/ADR-RES > 100 µM | OVCAR-4 > 100 µM | PC-3 > 100 µM | RXF 393 > 100 µM | SK-OV-3 > 100 µM | SNB-19 > 100 µM | SNB-75 > 100 µM | SW-620 > 100 µM | U-251 > 100 µM | UACC-257 > 100 µM
